# Results taken from patent publication US8426415B2, “Human ADAM-10 inhibitors” (Symphony Evolution, Inc., priority 2007, dated 2013).
# Experiment: stability in solution of the free hydroxamic acid (observed during purification)
# Type: physicochemical
# Conditions: degradation during lengthy column elution and solvent evaporation on pilot scale
# Excerpt: The purity of hydroxycarbamoylpiperazine of formula VIII obtained after part (i) ranged from 84% to 92%. The observed yields were between 63% and 78%. This hydroxycarbamoylpiperazine was of insufficient purity to produce pure magnesium salt/complex of formula VI suitable for pharmaceutical use. The direct conversion of hydroxycarbamoylpiperazine of formula VIII to the magnesium salt/complex of formula VI by omitting parts (ii) and (iii) yielded the magnesium salt/complex with the purity ranging from 96% to 97%. We discovered that this problem could be solved by first obtaining and separating a benzhydrylpiperazine complex of formula IX prior to the conversion to the magnesium salt/complex of […]. Yields for the process that included parts (i)-(iv) ranged from 81% to 86%. The purity of the magnesium salt/complex of […] was at least 99%; specifically, between 99.4% and 99.7%.
smiles,measurement,value
"COCCOC(=O)N1CCN(S(=O)(=O)c2cc(F)c(Oc3ccc(Cl)cc3)c(F)c2)[C@@H](C(=O)NO)C1 [formula VIII, 4-(4-(4-chlorophenoxy)-3,5-difluorophenylsulfonyl)-3-(hydroxycarbamoyl)piperazine-1-carboxylic acid, (R)-2-methoxyethyl ester]",stability in solution,poor stability in solution
